Where “and” joins values, the source holds several entries; their conditions need not be identical. Equal entries are not always repeated.

Experimental findings from US6174855A, “Pharmaceutical compositions comprising thrombin inhibitors and their use in the control of wound healing processes” (AstraZeneca AB, priority 1996, dated 2001) are described below.

The nature of series [1]: Plasma concentration of inogatran during intraperitoneal minipump infusion. As to conditions: for Mean Plasma Conc.: two rats. In kind it is in vivo, rat.
Series [2] can be described thus: Bleeding observations during inogatran minipump infusion. As to conditions: day 7. In kind it is in vivo, rat. An excerpt:
(§1) The serosal surfaces of the stomachs of adult, anaesthetised rats were exposed in an area 7 mm diameter to 80% acetic acid over 60 seconds and then rinsed with buffered saline.

In series [3] the test system is fibrin-related adhesions between the stomach and the liver, the intestines and the omentum. Put plainly: Acetic acid injury to the serosal surface of the rat stomach: formation of adhesions. Type of series: in vivo. As to conditions: for Adherences score: day 7. The method, then: The serosal surface of the stomach of an adult anaesthetised rat was exposed in an area of 7 mm diameter to 80% acetic acid over 60 seconds. After rinsing with buffered saline solution, an osmotic minipump (Alza 2001, volume about 220 μL; pumping rate about 1 μL/h; Alza Corp.; Palo Alto, Calif., USA; prefilled with a solution of the thrombin inhibitor melagatran, 2-100 μg/mL) was implanted into the peritoneal cavity, with the outlet of the pump kept open, and delivered its content into the abdominal cavity. The wounded area was covered by a chitosan membrane or, in an alternative experiment, a gel, having a diameter several millimeters larger than that of the injured area.
The serosal surface of the stomach of an adult, anaesthetised rat was exposed in an area of 7 mm diameter to 80% acetic acid over 60 seconds. After rinsing with buffered saline, the wounded area was covered by a chitosan membrane or, in an alternative experiment, a gel, having a diameter several millimeters larger than the injured area. An osmotic minipump (Alza 2001, volume about 220 μL; pumping rate about 1 μL/h; Alza Corp.; Palo Alto, Calif., USA; prefilled with a solution of the thrombin inhibitor melagatran, 2-100 μg/mL) was implanted subcutaneously, with the outlet of the pump kept open, delivering its content into the adjacent tissue. […]

Series [4] is described as follows: Plasma concentration of inogatran during intraperitoneal minipump infusion. In kind it is in vivo, rat.
Source text: as §1

Series [5] has as its system adhesions between injured area and adjacent muscles, muscle fascia, vessels, nerves and skin. Put plainly: Surgical removal of thigh muscle fascia in rat: adhesions inspected after 10 days. In kind it is in vivo. The note with it: subcutaneous minipump 0.2×100μg/mL, versus untreated animals. The source says: An incision was made in the thigh through the skin into the muscle tissue in an anaesthetised adult rat, and the muscle fascia was surgically removed in a defined area (about 10×15 mm). The wound was sutured, and eventually opened for inspection after 10 days. Numerous adhesions were recognized, and the presence of granulation tissue were noticed to connect and lock the injured area to adjacent muscles, muscle fascia, vessels and nerves as well as to the skin.
An incision was made in the thigh through the skin into the muscle tissue in an anaesthetised adult rat and the muscle fascia was surgically removed in a defined area (about 10×15 mm). The muscle fascia was covered by a chitosan membrane or, in an alternative experiment, a gel, to which was connected a tube from an osmotic minipump, which had been implanted subcutaneously (Alza 2001, total volume about 220 μL; pumping rate about 1 μL/h; Alza Corp.; Palo Alto, Calif., USA; prefilled with a solution of the thrombin inhibitor melagatran, 0.2×100μg/mL). The wound was then sutured, and eventually opened and inspected after 10 days.

[6] abbreviates: infusion rate 1*10 μL/h, 658 μg/h.
Where [7] appears, read: infusion rate 2*10 μL/h, 1317 μg/h.

As for `N=C(N)NCCCNC(=O)[C@@H]1CCCCN1C(=O)[C@@H](CC1CCCCC1)NCC(=O)O` [inogatran, HOOC--CH2 --(R)Cha-Pic-Nag-H], the “Mean Plasma Conc.” value in series [1] (infusion rate 1*1 μL/h, 66 μg/h, day 7) was found to be 180 nM; in series [1] (infusion rate 1*10 μL/h, 658 μg/h, day 7) it was 1840 nM; in series [1] (infusion rate 2*1 μL/h, 132 μg/h, day 7), 310 nM; in series [4] (infusion rate 4*1 μL/h, 264 μg/h, two rats, day 7), 720 nM. The “Plasma Conc.” value was 240 nM and 370 nM in series [1] (infusion rate 2*1 μL/h, 132 μg/h (269 and 248 μg/kg/h), day 7); 4440 nM in series [1] (infusion rate 2*10 μL/h, 1317 μg/h (2761 μg/kg/h), day 1); 2820 nM in series [1] (infusion rate 2*10 μL/h, 1317 μg/h (2761 μg/kg/h), day 2); 5560 nM in series [1] (infusion rate 2*10 μL/h, 1317 μg/h (2761 μg/kg/h), day 7); 580 nM and 610 nM in series [4] (infusion rate 1*1 μL/h, 66 μg/h (124 and 142 μg/kg/h), day 1); 170 nM and 190 nM in series [4] (infusion rate 1*1 μL/h, 66 μg/h (124 and 142 μg/kg/h), day 7). Moreover, the “Plasma Conc.” value in series [4] (infusion rate 1*10 μL/h, 658 μg/h (1327 and 1351 μg/kg/h), day 7) is 1880 nM and 1790 nM; in series [4] (infusion rate 2*1 μL/h, 132 μg/h (269 and 248 μg/kg/h), day 1) it was 470 nM and 460 nM; in series [4] (infusion rate 4*1 μL/h, 264 μg/h (588 and 558 μg/kg/h), day 1), 1270 nM and 810 nM; in series [4] (infusion rate 4*1 μL/h, 264 μg/h (588 and 558 μg/kg/h), day 2) it was 470 nM and 890 nM; in series [4] (infusion rate 4*1 μL/h, 264 μg/h (588 and 558 μg/kg/h), day 7), 570 nM and 870 nM. Further, the values for the bleeding observation result in series [2] (setting [6]) and in series [2] (setting [7]) were “Minor Tendency to Bleed” and “Diffuse Bleeding”, respectively. For the same compound, the Adherences score was 3 and 4 in series [3] (infusion rate 1*1 μL/h, 66 μg/h); 0 in series [3] (setting [6]); 2 in series [3] (infusion rate 2*1 μL/h, 132 μg/h); 0 in series [3] (setting [7]). In series [3] (intraperitoneal minipump(s) 65.86 μg/μL, 1 to 20 μL/h, for a week), the “formation of adhesions, dose dependence” value is on record as “prevented in a dose-response related manner”.

With `N=C(N)c1ccc(CNC(=O)[C@@H]2CCN2C(=O)[C@H](NCC(=O)O)C2CCCCC2)cc1` [melagatran, HOOC--CH2 --(R)Cgl-Aze-Pab-H], in series [5] (tube connected to chitosan membrane or gel over the muscle fascia), the “severity and dimensions of the adhesions formed between adjacent structures” value was “strikingly reduced”. Moreover, in series [5] (tube connected to chitosan membrane or gel), the “granulation tissue connecting and locking the injured area to adjacent structures” value is listed as “largely not connecting”. In series [3] (100 μL of 100-500 μg/mL solution dripped daily onto chitosan membrane or gel, after 2 to 5 days), the “bridging tissue (adhesions) between the stomach and the liver, the intestines and the omentum” value was “absolutely no bridging tissue”. The “fibrin network or strands of granulation tissue between the stomach and the liver, the intestines and the omentum” value is recorded as “No fibrin network or strands of granulation tissue could be detected” in series [3] (intraperitoneal minipump 2-100 μg/mL, outlet connected to chitosan membrane or gel, up to 10 days); “No fibrin network, nor any strands of granulation tissue, could be detected” in series [3] (intraperitoneal minipump 2-100 μg/mL, outlet open into abdominal cavity, wound covered by chitosan membrane or gel, up to 10 days); “No fibrin network, nor any strands of granulation tissue, could be detected” in series [3] (subcutaneous minipump 2-100 μg/mL, outlet open, wound covered by chitosan membrane or gel, up to 14 days). The “adhesions between the stomach and the liver, the intestines and the omentum” value in series [3] (minipump in peritoneal cavity, 2-100 μg/mL, about 1 μL/h, no polysaccharide, up to 10 days) is reported as “only scattered, delicate adhesions”.

For hirudin, the “fibrin network or strands of granulation tissue between the stomach and the liver, the intestines and the omentum” value in series [3] (intraperitoneal minipump for a week, wound covered by hyaluronan or chitosan membrane, up to 10 days) is given as “No fibrin network or strands of granulation tissue could be detected”.

Consider “streptokinase: fibrinolytic agent, purchased from Sigma Chemical Co”, for which the “fibrin-platelet network or strands of granulation tissue between the stomach and the liver, the intestines and the omentum” value in series [3] (intraperitoneal minipump, outlet connected to surface of chitosan membrane (or gel), up to 10 days) is reported as “No fibrin-platelet network nor any strands of granulation tissue could be detected”. Besides, the “fibrin network or strands of newly formed granulation tissue connecting the stomach with the liver, the intestines and the omentum” value in series [3] (minipump in abdominal cavity, outlet free and open, wound covered by chitosan membrane or gel, up to 10 days) is on record as “No fibrin network, nor any strands of newly formed granulation tissue, could be detected”.
